# Measurements: ChEMBL document CHEMBL5634177, “Isolation and Structure Determination of cis-OPDA-α-Monoglyceride from Arabidopsis thaliana” (J Nat Prod, 2024)
# The source made the active and inactive calls. The rule behind the calls is not given here.
# Experiments:
# Assay type in all cases: functional, organism-based
# Settings in all cases: dose 50.0 µg
# Bacillus subtilis = assay: Antibacterial activity against Bacillus subtilis assessed as inhibition of bacterial growth at 50 ug incubated for 24 hrs by paper disc method
# Staphylococcus aureus = assay: Antibacterial activity against Staphylococcus aureus assessed as inhibition of bacterial growth at 50 ug incubated for 24 hrs by paper disc method
# Escherichia coli = assay: Antibacterial activity against Escherichia coli assessed as inhibition of bacterial growth at 50 ug incubated for 24 hrs by paper disc method
SMILES,Activity (Bacillus subtilis),Activity (Staphylococcus aureus),Activity (Escherichia coli)
CC/C=C\C[C@@H]1C(=O)C=C[C@@H]1CCCCCCCC(=O)OCC(O)CO (some centres not stated),Active,Active,inactive
CC/C=C\C[C@@H]1C(=O)C=C[C@@H]1CCCCCCCC(=O)O,Active,Active,inactive
OCC(O)CO,inactive,inactive,inactive
CC/C=C\C[C@H]1C(=O)CC[C@@H]1CC(=O)O,inactive,inactive,inactive
